In patent publication US20250084097A1, “MACROCYCLIC AMIDE COMPOUNDS AND APPLICATION THEREOF” (Medshine Discovery Inc., priority 2021, published 2025):
pIC50: −log10 of the molar value. Where two headings read alike, the source gives them in different places.

Columns and labels:
[1] = biological target: Ba/F3-FL-EGFR (L858R/T790M/C797S) (Homo sapiens, UniProt P00533, T790M/C797S/L858R, cells depend on it); test: Cell proliferation inhibition, CellTiter-Glo; format: cell-based
Procedure: AdenosineTri-Phosphate (ATP) is an energy carrier shared by various life activities in nature, and is the smallest unit of energy storage and transfer. The CellTiter-Glo™ living cell assay kit uses luciferase as a detector, and luciferase requires the participation of ATP in the process of luminescence. CellTiter-Glo™ reagent is added to a cell culture medium, and the luminescence value is measured. The light signal is directly proportional to the amount of ATP in the system, and ATP is positively correlated with the number of living cells. Therefore, cell proliferation can be detected by detecting ATP content with the CellTiter-Glo kit. In this assay, the cell lines were Ba/F3-FL-EGFR (L858R/T790M/C797S), Ba/F3-FL-EGFR (WT), Ba/F3-FL-EGFR (L858R), Ba/F3-FL-EGFR (del19-S752-I759), Ba/F3-FL-EGFR (del19-E746-A750/T790M/C797S), Ba/F3-FL-EGFR (L858R/T790M), Ba/F3-FL-EGFR (del19-E746-A750/T790M), Ba/F3-TEL-EGFR (L858R/C797S), Ba/F3-FL-EGFR (del19-E746-A750/C797S) stably transfected cell lines.
The cell lines were cultured in an incubator at 37° C. and 5% CO2. The cells were periodically passaged, and cells in logarithmic growth phase were taken for plating.
a) DMSO was used to prepare a 10 mM solution of the compound to be tested, and then the compound to be tested was diluted to 0.3 or 1 mM with DMSO.
b) Preparation of 1000× compound storage plate (tube): DMSO was used to dilute by 3-fold gradient from the highest concentration to the lowest concentration, with a total of 9 concentrations.
c) Preparation of 20× compound working solution: 49 μL of cell culture medium was added to a flat-bottomed 96-well transparent drug plate, and 1 μL of compound was pipetted from the 1000× compound storage plate to the cell culture medium of the 96-well transparent drug plate. 1 μL of DMSO was added to the vehicle control. After adding compound or DMSO, the well content was mixed to uniform by aspiration and expelling with pipette.
a) Cells were stained with trypan blue and viable cells were counted. The cell viability rate was required to be above 90%.
b) 95 μL of cell suspension (2000 cells/well) was added to each well of the compound detection cell plate, and culture medium without cells (containing 0.1% DMSO) was added to the Min control well.
c) Dosing in the compound detection cell plate: 5 μL of 20× compound working solution was added to the cell culture plate. 5 μL of DMSO-cell culture mixture was added to the Max control. The final concentration of DMSO was 0.1%.
d) The culture plate was incubated in an incubator at 37° C., 5% CO2 for 72 hours.
Cell proliferation inhibition rate (Inhibition Rate) data were processed using the following formula:
Inhibition Rate (Inh %)=100−(RLUDrug−RLUMin)/(RLUMax−RLUMin)*100%.
The inhibition rates corresponding to different concentrations of compounds were calculated, and then GraphPad Prism software was used to draw the inhibition rate curve and the IC50 value was calculated.

[2] = Body weight of animals in the in vivo efficacy assay; conditions: for Body weight of the mice compared to the control group (tolerance): 10 days of continuous administration, 10 mg/kg and 25 mg/kg
Procedure: Dosage according to mouse body weight: 10 μL/g. If the body weight decreases by more than 20%, the dosing regimen was adjusted accordingly.
The formulation and any modifications of this assay protocol were evaluated and approved by the Laboratory Animal Welfare Ethics Committee of the testing institution. The health status and death of animals were checked every day. Routine inspections included tumor growth, activity, diet, body weight, eyes, hair and other abnormal behaviors of animals. Tumor volume and body weight were measured three times a week (Monday, Wednesday and Friday). The tumor volume was measured with a vernier caliper, and the formula was TV=0.5 a×b^2, where a is the long diameter of a tumor and b is the short diameter of a tumor.
The body weight of assay animals was used as a reference index to indirectly determine drug toxicity.

EGFR (L858R/T790M/C797S) = biological target: T1, EGFR (L858R/T790M/C797S) (Homo sapiens, UniProt P00533, C797S/L858R/T790M); test: Kinase inhibitory activity, 33P-ATP filtration-binding (Reaction Biology Corp.); format: biochemical; conditions: ATP 100 μM; read-out: Kinase half-maximal inhibition concentration IC50 EGFR(L858R/T790M/C797S)
T1 construct: Reaction Biology Corp. (assay performed there)
Procedure: (§1) Compound assay for kinase inhibitory activity against EGFR (L858R/T790M/C797S), EGFR (del19-E746-A750/T790M/C797S), and EGFR (WT) was done at Reaction Biology Corp. In reaction buffer (20 mM Hepes (pH 7.5), 10 mM magnesium chloride (MgCl2), 1 mM ethylenebis(oxyethylenenitrilo)tetraacetic acid (EGTA), 0.02% polyethylene glycol monododecyl ether (Brij35), 0.02 mg/ml BSA, 0.1 mM sodium vanadate (Na3VO4), 2 mM dithiothreitol (DTT), 1% DMSO), a certain concentration of substances, coenzyme factors, kinases and test compounds (10 doses, 3-fold serial dilutions, 2% DMSO final concentration) were added in sequence, and mixed well. The mixture was incubated at room temperature for 20 minutes. A certain concentration of ^33P-ATP was added to the reaction mixture to initiate reaction, followed by incubation at room temperature for 120 minutes. Finally, the radioactivity of the reactants was detected by filtration-binding method. The final kinase activity was expressed as the ratio of the remaining kinase activity of the test sample to the kinase activity of the DMSO control group. The dose-response relationship curve was fitted and IC50 was calculated using GraphPad software.

[3] = biological target: T2, EGFR (del19-E746-A750/T790M/C797S) (Homo sapiens, UniProt P00533, C797S/DEL746-750/T790M); test: as above; format: biochemical; conditions: ATP 100 μM; read-out: Kinase half-maximal inhibition concentration IC50 EGFR(del19-E746-A750/T790M/C797S)
T2 construct: Reaction Biology Corp. (assay performed there)
Procedure: as §1

EGFR (WT) = biological target: T3, EGFR (WT) (Homo sapiens, UniProt P00533); test: as above; format: biochemical; conditions: ATP 100 μM; read-out: Kinase half-maximal inhibition concentration IC50 EGFR(WT)
T3 construct: Reaction Biology Corp. (assay performed there)
Procedure: as §1

[4] = 72 hours, read-out: Cell half-maximal inhibition concentration IC50 Ba/F3-FL-EGFR (L858R/T790M/C797S)
[5] = 10 mg/kg/bid, day 0 after administration
[6] = 10 mg/kg/bid, day 3 after administration
[7] = 10 mg/kg/bid, day 5 after administration
[8] = 10 mg/kg/bid, day 7 after administration
[9] = 10 mg/kg/bid, day 10 after administration
[10] = 25 mg/kg/bid, day 0 after administration
[11] = 25 mg/kg/bid, day 3 after administration
[12] = 25 mg/kg/bid, day 5 after administration
[13] = 25 mg/kg/bid, day 7 after administration
[14] = 25 mg/kg/bid, day 10 after administration

Ba/F3-FL-EGFR (L858R/T790M/C797S), sequence (P00533 whole entry T790M/C797S/L858R): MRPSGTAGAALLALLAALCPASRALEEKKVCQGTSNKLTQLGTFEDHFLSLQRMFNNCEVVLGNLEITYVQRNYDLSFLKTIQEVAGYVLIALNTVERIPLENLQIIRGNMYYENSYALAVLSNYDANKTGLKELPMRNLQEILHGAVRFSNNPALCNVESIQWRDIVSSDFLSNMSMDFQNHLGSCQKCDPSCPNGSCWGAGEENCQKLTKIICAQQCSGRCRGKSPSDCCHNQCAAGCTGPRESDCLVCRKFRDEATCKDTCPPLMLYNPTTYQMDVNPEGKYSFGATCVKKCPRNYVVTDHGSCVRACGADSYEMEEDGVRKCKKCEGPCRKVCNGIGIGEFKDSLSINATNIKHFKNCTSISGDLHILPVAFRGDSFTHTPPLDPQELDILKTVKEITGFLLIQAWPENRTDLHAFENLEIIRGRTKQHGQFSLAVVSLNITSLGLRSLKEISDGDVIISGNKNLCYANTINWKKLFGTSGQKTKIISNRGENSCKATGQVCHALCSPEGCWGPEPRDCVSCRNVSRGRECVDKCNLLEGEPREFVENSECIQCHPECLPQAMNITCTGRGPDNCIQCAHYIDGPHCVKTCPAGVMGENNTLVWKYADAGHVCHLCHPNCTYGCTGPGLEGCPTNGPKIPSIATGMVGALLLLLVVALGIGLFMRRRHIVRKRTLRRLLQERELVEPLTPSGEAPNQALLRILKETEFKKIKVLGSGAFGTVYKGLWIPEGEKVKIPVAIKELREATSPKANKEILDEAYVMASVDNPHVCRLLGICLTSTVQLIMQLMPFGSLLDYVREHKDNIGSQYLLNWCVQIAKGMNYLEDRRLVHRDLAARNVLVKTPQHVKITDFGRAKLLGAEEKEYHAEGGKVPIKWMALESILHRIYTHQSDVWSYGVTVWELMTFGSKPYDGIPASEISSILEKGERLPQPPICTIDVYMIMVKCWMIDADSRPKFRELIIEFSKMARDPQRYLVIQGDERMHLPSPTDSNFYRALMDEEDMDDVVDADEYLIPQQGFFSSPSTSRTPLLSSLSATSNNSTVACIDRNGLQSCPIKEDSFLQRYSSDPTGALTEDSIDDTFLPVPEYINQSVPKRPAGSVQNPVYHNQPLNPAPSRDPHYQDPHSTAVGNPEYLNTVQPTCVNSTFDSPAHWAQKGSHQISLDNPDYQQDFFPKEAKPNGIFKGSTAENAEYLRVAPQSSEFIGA
T1 sequence (P00533 25-1210 T790M/C797S/L858R): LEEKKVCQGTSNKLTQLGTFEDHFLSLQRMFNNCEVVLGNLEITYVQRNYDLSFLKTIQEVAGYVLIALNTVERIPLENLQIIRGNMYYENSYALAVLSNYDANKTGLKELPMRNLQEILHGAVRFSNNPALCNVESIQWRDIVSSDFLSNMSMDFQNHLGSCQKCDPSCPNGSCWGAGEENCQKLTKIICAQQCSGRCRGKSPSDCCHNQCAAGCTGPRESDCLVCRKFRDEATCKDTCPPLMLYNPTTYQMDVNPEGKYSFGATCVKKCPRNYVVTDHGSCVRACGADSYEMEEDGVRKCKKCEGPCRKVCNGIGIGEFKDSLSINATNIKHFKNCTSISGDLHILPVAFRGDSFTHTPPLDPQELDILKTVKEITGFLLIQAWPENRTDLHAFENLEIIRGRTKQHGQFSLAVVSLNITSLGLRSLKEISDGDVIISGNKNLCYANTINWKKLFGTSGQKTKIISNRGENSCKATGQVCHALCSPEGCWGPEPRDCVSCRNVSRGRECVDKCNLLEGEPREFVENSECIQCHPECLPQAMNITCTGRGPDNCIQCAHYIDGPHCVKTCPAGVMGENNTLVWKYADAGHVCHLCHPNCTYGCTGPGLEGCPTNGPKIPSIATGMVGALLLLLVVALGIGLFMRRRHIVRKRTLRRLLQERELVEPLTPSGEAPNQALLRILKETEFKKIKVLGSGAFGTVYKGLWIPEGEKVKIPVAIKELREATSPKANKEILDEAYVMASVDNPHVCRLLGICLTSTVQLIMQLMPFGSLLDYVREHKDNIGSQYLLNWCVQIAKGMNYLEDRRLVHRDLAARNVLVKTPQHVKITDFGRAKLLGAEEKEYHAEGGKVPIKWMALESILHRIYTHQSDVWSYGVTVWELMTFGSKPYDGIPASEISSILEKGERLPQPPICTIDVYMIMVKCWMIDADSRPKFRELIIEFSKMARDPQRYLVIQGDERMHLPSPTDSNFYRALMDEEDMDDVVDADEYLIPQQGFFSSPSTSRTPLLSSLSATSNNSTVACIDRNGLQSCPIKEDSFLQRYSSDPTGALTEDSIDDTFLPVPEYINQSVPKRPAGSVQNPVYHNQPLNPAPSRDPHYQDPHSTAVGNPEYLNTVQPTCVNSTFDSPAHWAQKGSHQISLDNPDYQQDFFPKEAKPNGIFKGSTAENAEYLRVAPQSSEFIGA
T2 sequence (P00533 with tags, fused parts or gaps DEL746-750/T790M/C797S): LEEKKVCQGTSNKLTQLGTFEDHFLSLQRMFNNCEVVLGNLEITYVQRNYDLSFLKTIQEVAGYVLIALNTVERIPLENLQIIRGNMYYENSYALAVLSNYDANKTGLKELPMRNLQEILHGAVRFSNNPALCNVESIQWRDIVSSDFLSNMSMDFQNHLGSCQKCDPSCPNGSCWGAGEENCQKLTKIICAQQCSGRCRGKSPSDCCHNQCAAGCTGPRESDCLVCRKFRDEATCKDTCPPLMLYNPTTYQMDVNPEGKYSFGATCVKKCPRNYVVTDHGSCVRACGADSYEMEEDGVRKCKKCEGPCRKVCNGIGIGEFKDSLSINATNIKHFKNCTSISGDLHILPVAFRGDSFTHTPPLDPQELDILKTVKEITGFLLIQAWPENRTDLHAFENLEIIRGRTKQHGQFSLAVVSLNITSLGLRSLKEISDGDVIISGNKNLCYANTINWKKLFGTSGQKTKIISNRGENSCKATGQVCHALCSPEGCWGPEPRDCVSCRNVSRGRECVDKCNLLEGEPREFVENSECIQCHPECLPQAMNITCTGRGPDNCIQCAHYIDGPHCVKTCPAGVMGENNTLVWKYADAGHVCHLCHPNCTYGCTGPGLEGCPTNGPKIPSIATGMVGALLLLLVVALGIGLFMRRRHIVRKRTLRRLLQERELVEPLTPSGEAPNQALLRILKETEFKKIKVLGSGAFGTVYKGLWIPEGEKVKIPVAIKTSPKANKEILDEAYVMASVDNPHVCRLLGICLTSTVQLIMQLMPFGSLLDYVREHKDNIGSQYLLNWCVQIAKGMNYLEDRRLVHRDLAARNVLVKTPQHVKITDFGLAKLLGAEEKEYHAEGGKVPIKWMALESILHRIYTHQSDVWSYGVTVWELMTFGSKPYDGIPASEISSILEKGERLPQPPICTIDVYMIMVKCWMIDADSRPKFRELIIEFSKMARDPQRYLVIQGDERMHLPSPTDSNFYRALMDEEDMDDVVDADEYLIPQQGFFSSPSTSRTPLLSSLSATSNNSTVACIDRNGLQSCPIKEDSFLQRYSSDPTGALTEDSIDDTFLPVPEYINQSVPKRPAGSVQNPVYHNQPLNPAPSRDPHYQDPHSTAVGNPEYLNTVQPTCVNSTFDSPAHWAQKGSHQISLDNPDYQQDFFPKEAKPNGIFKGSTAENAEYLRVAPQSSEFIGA
T3 sequence (P00533 25-1210): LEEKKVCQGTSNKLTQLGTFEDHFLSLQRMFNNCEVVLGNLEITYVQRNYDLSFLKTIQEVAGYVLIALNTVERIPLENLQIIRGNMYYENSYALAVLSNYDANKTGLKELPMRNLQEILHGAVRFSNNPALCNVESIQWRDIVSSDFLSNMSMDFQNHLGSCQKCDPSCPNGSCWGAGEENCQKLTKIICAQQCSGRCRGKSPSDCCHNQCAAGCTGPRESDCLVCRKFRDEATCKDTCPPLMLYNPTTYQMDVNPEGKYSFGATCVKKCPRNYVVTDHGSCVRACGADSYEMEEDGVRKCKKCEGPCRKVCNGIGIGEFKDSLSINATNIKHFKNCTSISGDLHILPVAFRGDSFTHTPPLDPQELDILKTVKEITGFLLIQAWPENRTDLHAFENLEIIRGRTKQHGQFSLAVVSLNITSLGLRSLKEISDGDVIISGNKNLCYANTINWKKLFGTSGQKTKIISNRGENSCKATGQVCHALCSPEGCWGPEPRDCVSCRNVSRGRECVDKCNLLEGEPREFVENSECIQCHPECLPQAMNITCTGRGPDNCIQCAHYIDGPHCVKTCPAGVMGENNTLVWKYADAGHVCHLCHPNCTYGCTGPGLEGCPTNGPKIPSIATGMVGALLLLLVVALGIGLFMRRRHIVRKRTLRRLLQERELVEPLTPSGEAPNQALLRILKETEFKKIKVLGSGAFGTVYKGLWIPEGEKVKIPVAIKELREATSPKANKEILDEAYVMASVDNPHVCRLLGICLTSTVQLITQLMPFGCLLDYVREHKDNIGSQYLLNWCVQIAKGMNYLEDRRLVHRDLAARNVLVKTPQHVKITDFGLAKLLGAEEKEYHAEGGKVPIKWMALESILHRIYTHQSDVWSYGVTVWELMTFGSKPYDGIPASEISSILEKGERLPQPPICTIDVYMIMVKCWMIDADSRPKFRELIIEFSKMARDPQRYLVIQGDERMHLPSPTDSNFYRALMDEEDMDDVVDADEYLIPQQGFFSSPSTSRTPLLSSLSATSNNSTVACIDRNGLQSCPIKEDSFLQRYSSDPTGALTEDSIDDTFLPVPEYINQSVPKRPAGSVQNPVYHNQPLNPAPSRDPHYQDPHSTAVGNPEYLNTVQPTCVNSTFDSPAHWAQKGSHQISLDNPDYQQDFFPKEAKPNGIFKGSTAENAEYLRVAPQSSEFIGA

Which results are given for `Cc1cc2cc(n1)-c1cnn(C)c1OC[C@H]1CC[C@H](C1)CN1/C(=N/C2=O)Nc2ccc(N=S(C)(C)=O)cc21` (single isomer, unassigned) [WX-027A]?
GI50 [1, 4]: 8.6 nM; Average body weight [2, 5]: 21.7 g; Average body weight [2, 6]: 21.9 g; Average body weight [2, 7]: 22.1 g; Average body weight [2, 8]: 22.1 g; Average body weight [2, 9]: 22.2 g; Average body weight [2, 10]: 21.0 g; Average body weight [2, 11]: 21.5 g; Average body weight [2, 12]: 21.6 g; Average body weight [2, 13]: 21.4 g; Average body weight [2, 14]: 21.8 g; Body weight of the mice compared to the control group (tolerance) [2]: no significant difference; pIC50 (EGFR (L858R/T790M/C797S)): 8.74; pIC50 [3]: 10.03; pIC50 (EGFR (WT)): 7.25

Which GI50 [1, 4] does the source give for `Cc1cc2cc(n1)-c1cnn(C)c1OCCC[C@@H](C)CN1/C(=N/C2=O)Nc2ccc(N=S3(=O)CCCC3)cc21` [WX-010 (trifluoroacetate)] here?
Its GI50 is 2.8 nM.

With `Cc1cc2cc(n1)-c1cnn(C)c1OCCC[C@@H](C)CN1/C(=N/C2=O)Nc2ccc(N=S3(=O)CCOCC3)cc21` [WX-013] as the compound, how does the GI50 ([1]; read-out: Cell half-maximal inhibition concentration IC50 Ba/F3-FL-EGFR (L858R/T790M/C797S), 72 hours) read?
The GI50 was 4.3 nM.

Which results are given for `Cc1cc2cc(n1)-c1cnn(C)c1OCCC[C@@H](C)CN1/C(=N/C2=O)Nc2ccc(N=S(C)(C)=O)c(Cl)c21` [WX-019]?
GI50 [1, 4]: 5.7 nM; Average body weight [2, 5]: 20.6 g; Average body weight [2, 6]: 20.7 g; Average body weight [2, 7]: 20.8 g; Average body weight [2, 8]: 20.7 g; Average body weight [2, 9]: 20.9 g; Average body weight [2, 10]: 22.5 g; Average body weight [2, 11]: 23.4 g; Average body weight [2, 12]: 23.0 g; Average body weight [2, 13]: 22.8 g; Average body weight [2, 14]: 23.3 g; Body weight of the mice compared to the control group (tolerance) [2]: no significant difference; pIC50 (EGFR (L858R/T790M/C797S)): 8.45; pIC50 [3]: 9.86; pIC50 (EGFR (WT)): 6.67
